System: T1, Rhus vernicifera laccase (free laccase)
T1 construct: gene urishiol oxidase
Conditions: free enzyme; 100 mM sodium citrate buffer, optimum pH (3.5), 25°C; ABTS 0.05-20.0 mM

Km: 1720 ± 380 µM
Compound: CCn1c(=NN=c2sc3cc(S(=O)(=O)O)ccc3n2CC)sc2cc(S(=O)(=O)O)ccc21 [ABTS, 2,2'-azino-bis (3-ethylbenzothiazoline-6-sulfonic acid)]

Reference: paper PMC9895995, “Laccase Immobilization on Copper-Magnetic Nanoparticles for Efficient Bisphenol Degradation” (Journal of Microbiology and Biotechnology, 2022)
